# Results: patent publication US5837728A, “9-cis retinoic acid esters and amides and uses thereof” (priority 1995, dated 1998)
# What was measured:
# [1] = test system: ulceration of both lower legs; details: one patient, livedoid vasculitis; cited from earlier work
# [2] = test system: donor sites (partial-thickness wounds); details: average, silver sulfadiazine cream containing epidermal growth factor; cited from earlier work
# [3] = target: retinoid receptors; details: all six subfamilies of retinoid receptors; cited from earlier work
# [4] = test system: skin (inner forearm, cheek); test: Topical assay for comparative dermal irritation in human subjects; format: in vivo, human (patients)
# Experimental: 2-(9-cis-retinoyloxy)-4-methoxyacetophenone is evaluated in a study of its potential to produce dermal irritation. Comparisons are made of tretinoin, isotretinoin, 2-(9-cis-retinoyloxy)-4-methoxyacetophenone, and the vehicle solution.
# In the first test, four solutions are used. The control consists of vehicle solution, namely a solution of 60% by volume ethanol and 40% by volume polyethylene glycol. The other three solutions are 0.025% solutions of tretinoin, isotretinoin, or 2-(9-cis-retinoyloxy)-4-methoxyacetophenone in 60% by volume ethanol and 40% by volume polyethylene glycol. Four patients paint two saturated cotton swabs of each of the four solutions on four different areas of the inner forearm, twice daily for ten days.
# In the second test, four other solutions are used. The control consists of vehicle solution, namely a solution of 90% by volume ethanol and 10% by volume polyethylene glycol. The other three solutions are 0.075% solutions of tretinoin, isotretinoin, or 2-(9-cis-retinoyloxy)-4-methoxyacetophenonein 90% by volume ethanol and 10% by volume polyethylene glycol. Four patients paint two saturated cotton swabs of each of the four solutions on four different areas of the inner forearm, twice daily for ten days. Only one subject experiences an irritant reaction. […] By day nine, both areas are still reacting, the tretinoin area more intensely than the isotretinoin area. There is no reaction in either the 2-(9-cis-retinoyloxy)-4-methoxyacetophenone or the control areas.
# In the third test, three solutions are used. The three solutions are 0.075% solutions of tretinoin, isotretinoin, or 2-(9-cis-retinoyloxy)-4-methoxyacetophenone in 90% by volume ethanol and 10% by volume polyethylene glycol. Four patients paint two saturated cotton swabs of the 2-(9-cis-retinoyloxy)-4-methoxyacetophenone solution twice daily on one cheek of their faces. To the other cheek they apply two saturated cotton swabs of either tretinoin or isotretinoin.
# The tests are carried out in double-blind fashion, that is, neither the subjects nor the investigator know the contents of the solutions during the study.
# Clinical assessments are made daily of the subjects cheeks. All subjects develop irritant reactions by the third or fourth day of the study.
# [5] = test system: sebaceous gland; test: Oral hamster sebaceous gland reduction assay; format: in vivo, male Syrian golden hamsters; set-up: key to the marks not given beside the values; details: 32 mg/kg
# Experimental: An oral assay for hamster sebaceous gland reduction is conducted.
# Hamsters are dosed orally with the test compound and vehicle alone. The reduction in sebaceous gland size is estimated microscopically in relation to the control. The assay is unique and proprietary to Ortho Pharmaceutical Corp. and is based upon the work of Plewig et al. (1977) and Gomex et al. (1980). Plewig, et al., Hamster Ear Model for Sebaceous Glands, J. Invest. Derm. 68: 171-176 (1977). Gomez, et al., Effect of 13-cis-Retinoic Acid on the Hamster Flank Organ, J. Invest. Derm. 74: 392-397 (1980).
# For oral (p.o.) studies, male Syrian golden hamsters are […] at 5 ml/kg, once daily, five consecutive days/week for two or three weeks. Modified but similar dosing schedules could be used. Control hamsters are dosed with vehicle alone at 5 ml/kg. Following final treatment (up to 72 hours), the hamsters are sacrificed in a CO2 atmosphere. Samples of each test site are placed into 10% buffered formalin and histologically prepared. Serial sections of each sample are stained (H&E) and examined microscopically.
# The reduction in sebaceous gland size is estimated microscopically in relation to the control treated sites. To quantify sebaceous gland size, cross-sectional areas are measured with an image analyzer system.
compound,measurement,setting,value
O=C(c1ccc(F)cc1)C1CCN(CCn2c(=O)[nH]c3ccccc3c2=O)CC1 [Ketanserin],Effect on recalcitrant ulceration,[1],healed the lesions in a patient with recalcitrant ulceration of both lower legs
epidermal growth factor,Acceleration of donor site healing time,[2],1.5 days
CC1=C(/C=C/C(C)=C\C=C\C(C)=C\C(=O)O)C(C)(C)CCC1 [9-cis-retinoic acid],Equilibrium constants in competitive binding,[3],lowest equilibrium constants of all retinoids for all six subfamilies of retinoid receptors
CC1=C(/C=C/C(C)=C/C=C/C(C)=C\C(=O)O)C(C)(C)CCC1 [13-cis-retinoic acid],"Irritant reactions, inner forearm","[4]; first test, 0.025% solution, twice daily for ten days",No irritant reactions occur
same,"Irritant reaction, inner forearm","[4]; second test, 0.075% solution, twice daily for ten days, one subject of four reacted","On day seven, the isotretinoin area begins reacting with redness and peeling"
same,Irritation of the cheeks,"[4]; third test, 0.075% solution, twice daily, six days",reactions which are so intense with redness and peeling that all subjects discontinue application on or before the sixth day
same,Sebaceous gland reduction,[5],++
